In assay [1] the test system is BALB/c mice with OVA-induced inflammatory bronchitis. The experiment in a line: OVA-induced inflammatory bronchitis, adoptive transfer of DCregs. Particulars: DCs pretreated with filipin. It counts as in vivo. The procedure: FIG. 28. Co-immunization-induced DCregs ameliorate inflammatory bronchitis. A) Experimental design: Balb/c mice were injected with 0.1 ml of 1 mg/ml OVA/alum complexes in PBS on days 0 and 7 by i.p. and subsequently challenged with 100 μg OVA intra-tracheally on days 14, 16 and 18 to establish the “model”. Control mice were received with PBS intra-tracheally on days 14, 16 and 18 and designated as the “shame” control. On day 21, 5×10^5 of CD11c+ cells from syngeneic donor mice were transferred into model mice once daily for 3 consecutive days by i.v. (n=3 per group). Prior to the transfer, donor CD11c+ cells purified from spleen of naïve mice were pre-treated with or without filipin and subsequently co-treated with pOVA+OVA or pVAX+OVA for 24 h. On day 14 after the final transfer, serum samples were taken to analyze the levels of IgE or cytokine productions. Sections of lung tissues were made to evaluate disease severity. B) the level of antigen specific IgE was analyzed by ELISA following adoptive transfer of indicated DCs. […] D) Lung sections were examined by H&E staining and recorded under a light microscope at ×100 and ×200 magnification. […]
Lung or ovary were fixed in 4% paraformaldehyde or Bouin's solution and embedded in paraffin blocks. […] Histopathology of lung or ovary was evaluated under a light microscope. […]

For the next assay, the system named is JAWS II cells. The experiment in a line: Endocytosis inhibitor pre-treatment of JAWS II cells fed pOVA323+OVA323, CD40 staining. Type of assay: cell-based, mouse. The following applies: pre-treatment before pOVA323+OVA323. On the procedure: FIG. 24. DCs co-take up DNA and protein immunogens via clathrin- and caveolae-mediated endocytosis. A) JAWS II cells were pre-treated with PBS, MDC (50 μM), or filipin (10 μg/ml) for 30 min at 37° C. and then fed Cy5-pOVA323+FITC-OVA323 or Cy5-pVAX+FITC-OVA323 for 24 h. The cells were stained with anti-CD40-PE and analyzed by flow cytometry. Shown is CD40 staining of Cy5/FITC double-positive cells (gated). B) A summary of the experimental results are shown.
FIG. 30. Effect of amiloride on the expression of CD40 in JAWS II cells. JAWS II cells were pre-treated with amiloride (5 mM) for 10 min at 37° C. and then co-treated with Cy5-pOVA323+FITC-OVA323 or Cy5-pVAX+FITC-OVA323 for 24 h. The cells were stained with anti-CD40-PE and analyzed by flow cytometry.
The JAWS II mouse DC line was purchased from the American Type Culture Collection (ATCC, Manassas, Va., USA) and maintained in complete growth medium containing minimum essential medium (MEM) alpha with ribonucleosides, deoxyribonucleosides, 4 mM L-glutamine, and 1 mM sodium pyruvate (Invitrogen Inc., Carlsbad, Calif., USA), and supplemented with 20% fetal bovine serum (ATCC) and 5 ng/ml murine recombinant GM-CSF (R&D Systems, Inc., Minneapolis, Minn., USA). The cells were incubated at 37° C. with 5% CO2 and treated with different antigens (10 μg/ml) such as pVAX, pOVA, OVA, pOVA323 and OVA323 for 24 h. […]

Molecules are shown by their SMILES.

For the compound `CCCCC[C@@H](O)[C@H]1C(=O)O[C@H](C)[C@@H](O)/C=C/C=C/C=C/C=C/C=C(\C)[C@@H](O)C[C@H](O)C[C@H](O)C[C@H](O)C[C@H](O)C[C@H](O)C[C@@H]1O` [filipin], in assay [1], the “anti-inflammatory effect of pOVA+OVA treated DCs after inhibitor pre-treatment” value was “absent”. Further, the “effect on CD40low phenotype / CD40 expression” value in the assay on JAWS II cells is on record as “could prevent the CD40^1′ phenotype, filipin was more effective than MDC”.

Values taken from patent US20120076808A1, “COMBINED ANTIGEN AND DNA VACCINE FOR PREVENTING AND TREATING AUTOIMMUNE DISEASES” (CHINA AGRICULTURAL UNIVERSITY, priority 2010, published 2012).
